We go through two compounds from patent publication US10808001B2, “Biflavone-cobalt complex, preparation method and application thereof” (NANJING FORESTRY UNIVERSITY, priority 2017, dated 2020).

One assay deals with hepatoma cells (HepG2). Description: MTT method, inhibition of hepatoma cells (HepG2). The assay is classed as cell-based. Conditions: Homo sapiens, HepG2, absorbance at 595 nm, modified Karber formula, read-out: IC50, inhibition of growth of hepatoma cells (HepG2). On the procedure:
(§1) The antitumor activity of Ame and Ame-Co complex were studied by MTT method with the following process:
(§2) (1) The HepG2 and HeLa cell suspensions were inoculated into 96-well culture plates, 100 μL was added for each well, (1×10^5/mL), and then cultured in a 5% CO2 incubator at 37° C. for 24 h;
(§3) (2) After culturing for 24 h, the supernatant was discarded, 100 μL of pre-diluted sample was added, 10 replicate wells were set for each concentration, and then incubated in the 5% CO2 incubator for 24 h; meanwhile, control wells (DMSO, cell suspension, MTT), and blank wells (medium, DMSO, MTT) were set;
(§4) (3) After culturing for […], the supernatant was discarded, 100 μL of DMEM medium containing MTT (5 mg/mL) were added, and then continuously cultured for 4 h; […]
(§5) Where, IR is the inhibition rate, OD0 is the absorbance of the control group, OD1 is the absorbance of the sample group, Xm is lg (the maximum dose), I is lg (the maximum dose/adjacent dose), P is the sum of positive reaction rates, Pm is the maximum positive reaction rate, and Pn is the minimum positive reaction rate.
A general note: Formazan colour is commonly taken as a measure of viable cells.

Assay [1] relates to cervical cancer cells (HeLa). The assay is described as follows: MTT method, inhibition of cervical cancer cells (HeLa). The assay is classed as cell-based. Conditions: Homo sapiens, absorbance at 595 nm, modified Karber formula, read-out: IC50, inhibition of growth of cervical cancer cells (HeLa). On the procedure: as §1, §2, §3, §4, §5
In another assay the test system is herring sperm DNA (fDNA). The assay is described as follows: Interaction with fDNA by UV-vis spectroscopy, fluorescence spectroscopy (fDNA-EB system) and viscosity method. As to conditions: UV-vis, fluorescence (fDNA-EB) and viscosity methods. Type of assay: binding. The source says:
UV-vis spectroscopy, fluorescence spectroscopy and viscosity method are used to study the interaction between the Ame/Ame-Co complex and herring sperm DNA (fDNA) to further reveal the mechanism of antitumor activity, the obtained spectra are shown in FIGS. 7-11.

The nature of assay [2]: Pyrogallol auto-oxidation method, O2^−. free radical scavenging. Conditions: Tris-HCl pH 8.20, 25° C., 322 nm, read-out: IC50 to scavenge O2^−. free radical. On the procedure:
The free radical scavenging capacity and the total antioxidant capacity of the Ame and the Ame-Co complex were studied by pyrogallol auto-oxidation method, ABTS method and FRAP method with the following steps:
(1) Pyrogallol Auto-Oxidation Method
Determination of auto-oxidation rate V0 of pyrogallol: 2 mL Tris-HCl buffer (pH=8.20) was added to a 10 mL sample tube at 25° C., 100 μL DMSO was added as a control, after adding 0.8 mL distilled water, 0.2 mL pyrogallol solution having a concentration of 2 mmol·L^−1 was added, the mixture was poured into a cuvette after mixing uniformly, the absorbance at 322 nm was measured with pure water as a blank, the A value was recorded every 10 s for a total of 4 min, linear regression was performed with t as the abscissa, and A as the ordinate, straight line slope thereof is V0, and the measurement was performed for three times to obtain an average value. […]

Assay [3] in a line: FRAP method, total antioxidant capacity. As to conditions: Fe^3+-TPTZ, 37° C., 30 min, 593 nm. On the procedure: Drawing of the standard curve of FeSO4.7H2O: different volumes of FeSO4.7H2O solution were added to NaAc—HAc buffer (pH=3.6) to prepare Fe^2+ solution with different concentrations. 0.5 mL TPTZ solution, 0.1 mL DMSO, and 1.9 mL NaAc—HAc buffer containing Fe^2+ were successively added into a 10 mL sample tube, after reacting for 5 min at 37° C., the UV-vis spectrum was measured, and the absorption intensity at 593 nm was recorded, and the standard curve was drawn with absorbance (A) as the vertical coordinate and Fe^2+ concentration as the horizontal coordinate.
Determination of total antioxidant capacity of the sample: 0.5 mL TPTZ solution, 0.5 mL ferric chloride solution, 0.1 mL DMSO solution containing samples of different concentrations, and 1.5 mL NaAc—HAc buffer were successively added into a 10 mL sample tube, after reacting for 30 min at 37° C., the UV-vis spectrum was measured, and the absorption intensity A1 at 593 nm was recorded, the absorbance A1 of the sample was converted to the corresponding Fe^2+ ion concentration according to the standard curve of ferrous sulfate, and the curve was drawn with the sample concentration (csample) as the horizontal coordinate and the corresponding Fe^2+ concentration (cFe2+) as the vertical coordinate. […]

In general, IC50 refers to the point on the concentration scale where inhibition reaches its midpoint. For the compound `O=c1cc(-c2ccc(O)c(-c3c(O)cc(O)c4c(=O)cc(-c5ccc(O)cc5)oc34)c2)oc2cc(O)cc(O)c12` [Ame, amentoflavone], the IC50 turned out to be 13.6 µM with hepatoma cells (HepG2), 8.04 µM in assay [1] and 23.3 µM in assay [2]. Further, the “manner of interaction with fDNA” value in the assay on herring sperm DNA (fDNA) is “in the intercalation manner”.

Regarding `CS(C)=[O+][Co-4]1([O+]=S(C)C)[O+]=C2C=C(c3ccc(O)cc3)Oc3c2c(cc(O)c3-c2cc(-c3cc(=O)c4c(O)cc(O)cc4o3)ccc2O)[OH+]1` [Ame-Co complex, amentoflavone-cobalt (Ame-Co) complex], in the assay with herring sperm DNA (fDNA), the “manner of interaction with fDNA” value is recorded as “in the intercalation manner”; the “strength of interaction with fDNA compared with Ame” value was “stronger than that between the Ame and the fDNA”. The IC50 in assay [2] is 4.74 µM. For the same compound, in assay [3], the “total antioxidant capacity compared with Ame at the same concentration” value is “significantly stronger than that of Ame”.
